The subject of one test is HSV1- KOS/Dlux/oriS. Nature of the test: HSV-1 luciferase assay in HFFs. Format: cell-based, herpesvirus 1 (HSV-1). The following applies: Human alphaherpesvirus 1, read-out: Mean EC50 ± SD. The procedure: (§1) The pp28-luciferase HCMV Towne and a GCV-resistant pp28-luciferase were used. The recombinant viruses express luciferase under the control of the late CMV gene promoter, pp28. Luciferase expression is activated 48–72 hours post infection (hpi). The recombinant viruses provide a highly-sensitive reporter system which correlates with plaque reduction assay. The Towne HCMV strain (ATCC VR-977) was used for plaque reduction, quantitative reverse transcriptase PCR (qRT-PCR), and immunoprecipitation assays. Human herpes virus strains were: luciferase HSV1- KOS/Dlux/oriS [52] and clinical isolates of HSV2. The clinical isolates were provided by the clinical microbiology laboratory with no identifiers that can link to a specific subject. Murid Herpesvirus (MCMV: ATCC VR-1399) was used for infection of mouse embryonic fibroblasts (MEFs) and mice.
(§2) Human Foreskin Fibroblasts (HFFs) passage 12–16 (ATCC, CRL-2088) and mouse embryonic fibroblasts (MEFs) passage 9–14 (ATCC, CRL-1658) were grown in Dulbecco's Modified Eagle Medium (DMEM) containing 10% fetal bovine serum (FBS) (Gibco, Carlsbad, CA) in a 5% CO2 incubator at 37°C. […] Luciferase activity was measured 72 h following second cycle infection. […] After incubation at 37°C for 10 days (for HCMV), 3 days for MCMV or 2 days (for HSV), the overlay was removed and plaques were counted after crystal violet staining.

The subject of test [1] is GCV-resistant pp28-luciferase Towne. Nature of the test: GCV-resistant pp28-luciferase HCMV luciferase assay. Particulars: Human betaherpesvirus 5, read-out: Mean EC50 ± SD. In kind it is cell-based, Human Cytomegalovirus. The procedure: as §1, §2
Test [2] has as its system clinical isolates of HSV2. Nature of the test: HSV-2 plaque assay in HFFs. Format: cell-based. Particulars: Human alphaherpesvirus 2, read-out: Mean EC50 ± SD. The procedure:
as §1, §2

The next test deals with MCMV. Nature of the test: MCMV plaque reduction assay in MEFs. Format: cell-based, mouse CMV. Here is the method: as §1
Human Foreskin Fibroblasts (HFFs) passage 12–16 (ATCC, CRL-2088) and mouse embryonic fibroblasts (MEFs) passage 9–14 (ATCC, CRL-1658) were grown in Dulbecco's Modified Eagle Medium (DMEM) containing 10% fetal bovine serum (FBS) (Gibco, Carlsbad, CA) in a 5% CO2 incubator at 37°C. Infection with HCMV or HSV was performed in HFFs, and infection with mouse CMV was performed in MEFs. For HCMV, cells were seeded in either a 96-well plate or 100 mm culture plates (Corning Costar, Sigma Aldrich) at 0.5 or 2 million cells /plate. Following 90 minute adsorption, media was removed and cells were washed with PBS. Media containing 4% FBS and compounds were added to each well. Infected treated HFFs were collected at 72 hpi and lysates were assayed for luciferase activity using a luciferase assay kit (Promega, Madison, WI) on GloMax-Multi+ Detection System (Promega). In second cycle assays, supernatants were collected from all conditions of the first cycle at 96 hpi and used for infection of fresh HFFs in 96-well plates. Luciferase activity was measured 72 h following second cycle infection. […] After incubation at 37°C for 10 days (for HCMV), 3 days for MCMV or 2 days (for HSV), the overlay was removed and plaques were counted after crystal violet staining.
(In a plaque reduction assay, fewer plaques than in the control indicate reduced infectivity or spread.)

The test system of test [3] is pp28-luciferase HCMV Towne. Nature of the test: microbe, parasite or virus in culture. Format: cell-based, Human Cytomegalovirus. The following applies: for normalized pp28-luciferase activity: emetine 75 nM, 72 hpi. The procedure: The pp28-luciferase HCMV Towne and a GCV-resistant pp28-luciferase were used. The recombinant viruses express luciferase under the control of the late CMV gene promoter, pp28. Luciferase expression is activated 48–72 hours post infection (hpi). The recombinant viruses provide a highly-sensitive reporter system which correlates with plaque reduction assay. […] Human herpes virus strains were: luciferase HSV1- KOS/Dlux/oriS [52] and clinical isolates of HSV2. The clinical isolates were provided by the clinical microbiology laboratory with no identifiers that can link to a specific subject.
Infection with HCMV or HSV was performed in HFFs, and infection with mouse CMV was performed in MEFs. For HCMV, cells were seeded in either a 96-well plate or 100 mm culture plates (Corning Costar, Sigma Aldrich) at 0.5 or 2 million cells /plate. Following 90 minute adsorption, media was removed and cells were washed with PBS. Media containing 4% FBS and compounds were added to each well. Infected treated HFFs were collected at 72 hpi and lysates were assayed for luciferase activity using a luciferase assay kit (Promega, Madison, WI) on GloMax-Multi+ Detection System (Promega). In second cycle assays, supernatants were collected from all conditions of the first cycle at 96 hpi and used for infection of fresh HFFs in 96-well plates. […] For HSV1-KOS/Dlux/oriS, a luciferase assay was performed at 24 hpi. […] For HCMV or MCMV, HFFs or MEFs were seeded at 0.5 or 2 million cells /plate in a 12-well plate and infected 24 hours later at 100 PFU/well. Following virus adsorption (60 min and 90 min for HSV and HCMV, respectively), virus was aspirated, and DMEM containing 4% fetal bovine serum (FBS) with (for HSV) or without (for HCMV/MCMV) 0.5% carboxymethyl-cellulose, were added with the compounds at indicated concentrations into triplicate wells. After incubation at 37°C for 10 days (for HCMV), 3 days for MCMV or 2 days (for HSV), the overlay was removed and plaques were counted after crystal violet staining.

The subject of test [4] is HCMV proteins IE1/2, UL44 and pp65. Nature of the test: Western blot of viral proteins. In kind it is cell-based, Human Cytomegalovirus. The following applies: emetine 75 nM, 72 hpi. An excerpt: Cell lysates were quantified for protein content using bicinchoninic acid (BCA) protein assay kit (Pierce Chemical, Rockford, IL). Equivalent amount of proteins were used for Western blot analysis as described previously (11). Protein bands were visualized by chemiluminescence using Western Blotting Luminol Reagent (Santa Cruz Biotechnology, Santa Cruz, CA). The following antibodies were used for detection of HCMV proteins: mouse anti-IE1 and IE2, (MAb810); mouse anti-UL44 (Santa Cruz biotechnology); mouse monoclonal anti-pp65 (Vector laboratories, Burlingame, CA); mouse monoclonal anti-β-actin antibody (Millipore, Billerica, MA); rabbit polyclonal anti-RPS14 and mouse monoclonal anti-MDM2 (AbCam, Cambridge, UK), mouse monoclonal anti-p53 (Santa Cruz); horseradish peroxidase (HRP)-conjugated goat anti-rabbit IgG (Cell Signaling); and HRP-conjugated sheep anti-mouse IgG, (GE Healthcare, Waukesha, WI). For detection of co-immunoprecipitated proteins, protein A-HRP conjugate (Cell Signaling Technologies, Beverly, MA) was used as secondary antibody to eliminate the interfering IgG bands.
(Immunoblotting shows a protein as a band on a membrane.)

Each structure is given as a SMILES string. Where a name gives a salt, the structure may show the parent alone.

Take `CC[C@H]1CN2CCc3cc(OC)c(OC)cc3[C@@H]2C[C@@H]1C[C@H]1NCCc2cc(OC)c(OC)cc21` [emetine, emetine dihydrochloride hydrate]: the EC50 in the test on HSV1- KOS/Dlux/oriS worked out at 56 nM; in test [1] it was 38 nM; in test [2] it was 33 nM; with MCMV (in Mus musculus, MCMV, plaque assay, read-out: Mean EC50 ± SD), 36 nM; in test [3] (Human betaherpesvirus 5, read-out: EC50 against pp28-luciferase Towne), 40 ± 1.72 nM. Also, in the test with MCMV (emetine 75 nM, 0.5 and 2 million cells/plate), the “MCMV plaque reduction and cell density” value is “cell-density dependent response”. The “normalized pp28-luciferase activity” value in test [3] (increased cell density) is reported as “significant reduction”; in test [3] (low cell density) it was “no reduction”. Also, in test [3] (pp28-luciferase Towne, HFFs), the “Hill slope of the concentration-response curve” value was determined as 3.1. In test [4], the “expression of HCMV proteins IE1/2, UL44 and pp65” value is given as “significantly reduced”.

What is called EC50 is the midpoint of the concentration-response curve.

The values above are taken from publication PMC4919066 (PLoS Pathogens, 2016).
